In patent US20110136728A1, “METHODS OF INCREASING BONE FORMATION USING LEPTIN-RELATED PEPTIDES” (priority 2009, published 2011):
Non-standard residues stand in square brackets, D forms with d. Residues, ends and D or L forms follow the SMILES beside them.

Set-up: species or system male Swiss Webster mice
Conditions: mouse, in vivo
Method: Six week-old male Swiss Webster mice weighing approximately 30 g were obtained from Taconic Farms (Germantown, N.Y., USA). The animals were housed three per cage in polycarbonate cages fitted with stainless steel wire lids and air filters, and supported on ventilated racks (Thoren Caging Systems, Hazelton, Pa., USA) in the Albany Medical College Animal Resources Facility. The mice were maintained at a constant temperature (24° C.) with lights on from 07:00 to 19:00 h, and allowed food and water ad libitum until used for uptake studies. Mouse [[…]]OB3 was prepared commercially as a C-terminal amide by Bachem (Torrance, Calif., USA). For oral delivery, mouse [[…]]-OB3 was dissolved in either phosphate buffered saline (PBS, pH 7.2) or 0.3% […] Therapeutics, San Diego, Calif. USA) reconstituted in water, at a concentration of 1 mg/200 ul and administered by gavage. Is has been previously shown that this concentration to be optimum for regulating energy expenditure, glycemic control, and insulin sensitivity in two genetically obese mouse models. (See Grasso P. et al., Regulatory Pept. 101:123-9 (2001); Grasso P. et al., Regulatory Pept. 85:93-100 (1999); Grasso P. et al., Endocrinology 138:1413-8 (1997); Grasso P. et al., Diabetes 48:2204-9 (1999); and Rozhayskaya-Arena M. et al., Endocrinology 141:2501-7 (2000)). At time zero (0), 200 μl mouse [[…]]-OB3 in PBS or 0.3% […]® was delivered by gavage to each mouse. Following peptide administration, the mice were transferred to separate cages for the designated time period. Five, 10, 20, 40, 60, or 120 min after peptide delivery, the mice (six per time point) were anesthetized with isoflurane (5%) and exsanguinated by cardiac puncture. Euthanasia was confirmed by cervical dislocation. The blood was collected in sterile nonheparinized plastic centrifuge tubes and allowed to stand at room temperature for 1 h. The clotted blood was rimmed from the walls of the tubes with sterile wooden applicator sticks. Individual serum samples were prepared by centrifugation for 30 min at 2600×g in an Eppendorf […], A-4-38 rotor (Eppendorf North America, Westbury, N.Y., USA), The serum samples in each experimental group (n=6) were pooled and stored frozen until assayed for mouse [[…]]-OB3 content by competitive ELISA. Mouse [[…]]-OB3 content of the pooled serum samples was measured by a competitive ELISA developed and validated in our laboratory as previously described. (See Novakovic Z. et al., Regulatory Pept. 154:107-11 (2009)). Serum concentrations of mouse [[…]]OB3 vs. time following oral delivery were plotted using the graphics program SigmaPlot 8.0 (SPSS Science, Chicago, Ill., USA). The area under the curve (AUC) was calculated with a function of this program. The lowest AUC value obtained was arbitrarily set at 1.0. Relative bioavailabilty was determined by comparing all other AUC values to 1.0. The period of time required for the serum concentration of mouse [[…]]-OB3 to be reduced to exactly one-half of the maximum concentration achieved following oral administration of mouse [[…]]-OB3 in the absence or presence of […]® was calculated using the following equation: […] Clearance of mouse [[…]]-OB3 from the plasma following oral delivery was calculated from the AUC using the following equation: CL=Dose/AUC Since the half-life of a drug is inversely related to its clearance from the plasma and directly proportional to its volume of distribution, the apparent volume of distribution of mouse [[…]]-OB3 following oral delivery was calculated from its half-life and clearance using the following equation: […] The relative oral bioavailability of mouse [[…]]-OB3 delivered in […]® was compared to the relative bioavailabilities of intranasal and three commonly used injection methods of delivery recently reported. (See Oliveira Jr. V X. et al., J. Pept. Sci. 14:617-25 (2008)). […]

## CC(C)C[C@@H](NC(=O)[C@H](CO)NC(=O)[C@H](CS)NC(=O)[C@@H](N)CO)C(=O)N1CCC[C@H]1C(=O)N[C@@H](CCC(N)=O)C(=O)N[C@H](C(N)=O)[C@@H](C)O [mouse [D-Leu-4]-OB3] (H-SCS[dL]PQT-NH2; N-terminus assumed)
  Relative oral bioavailability: 52.2%
Relative oral bioavailability
  bioavailability: 47.3%
po, 1 mg
  Maximum uptake (Cmax) in Intravail relative to PBS: 3.6 fold
  Plasma CL in PBS compared with Intravail: four times faster
  Tmax: 50 min
  t1/2 (serum half-life): 20.15 min
  tmax: 50 min
